A short description of series [1]: Selectivity index, ratio of IC50 for African green monkey Vero cells to MIC for Mycobacterium tuberculosis H37RV ATCC 27294. The series is classed as toxicity, cell-based. The following applies: read-out: Selectivity Index.
For another series, the system named is Vero. Nature of the series: Cytotoxicity against African green monkey Vero cells after 48 hrs by MTT assay. The series is classed as cell-based. Conditions: Chlorocebus sabaeus. In general terms: Formazan colour is commonly taken as a measure of viable cells.
Series [2] has as its system Mycobacterium tuberculosis. As to the kind of experiment: Antitubercular activity against Mycobacterium tuberculosis H37RV ATCC 27294 assessed as growth inhibition after 3 to 11 days by microdilution method. The series is classed as functional. (Broth dilution looks for growth in wells or tubes with falling amounts of substance.)
In another series the test system is Pseudomonas aeruginosa. Nature of the series: Antibacterial activity against Pseudomonas aeruginosa ATCC 27853 assessed as growth inhibition after 18 hrs by broth microdilution method. The series is classed as functional. Conditions: ATCC 27853, 18 h.
The subject of the next series is Escherichia coli. Nature of the series: Antibacterial activity against Escherichia coli ATCC 25922 assessed as growth inhibition after 18 hrs by broth microdilution method. In kind it is functional. The following applies: ATCC 25922, 18 h.
Series [3] concerns Mycolicibacterium smegmatis. As to the kind of experiment: Antibacterial activity against Mycobacterium smegmatis assessed as growth inhibition after 18 hrs by broth microdilution method. The series is classed as functional.
Series [4] has as its system Staphylococcus aureus. As to the kind of experiment: Antibacterial activity against methicillin-resistant Staphylococcus aureus ATCC 43300 assessed as growth inhibition after 18 hrs by broth microdilution method. The series is classed as functional. The following applies: ATCC 43300, 18 h.
The subject of series [5] is Staphylococcus aureus. Nature of the series: Antibacterial activity against methicillin-resistant Staphylococcus aureus ATCC 33591 assessed as growth inhibition after 18 hrs by broth microdilution method. In kind it is functional. The following applies: ATCC 33591, 18 h.
Series [6] relates to Staphylococcus aureus. As to the kind of experiment: Antibacterial activity against methicillin-susceptible Staphylococcus aureus CMCC 26003 assessed as growth inhibition after 18 hrs by broth microdilution method. In kind it is functional. The following applies: CMCC 26003, 18 h.
For series [7], the system named is Staphylococcus aureus. As to the kind of experiment: Antibacterial activity against methicillin-susceptible Staphylococcus aureus ATCC 6538 assessed as growth inhibition after 18 hrs by broth microdilution method. The series is classed as functional. The following applies: ATCC 6538, 18 h.
The subject of series [8] is Staphylococcus aureus. As to the kind of experiment: Antibacterial activity against methicillin-susceptible Staphylococcus aureus ATCC 29213 assessed as growth inhibition after 18 hrs by broth microdilution method. In kind it is functional. Conditions: ATCC 29213, 18 h.
Series [9] has as its system Staphylococcus aureus. Nature of the series: Antibacterial activity against methicillin-susceptible Staphylococcus aureus ATCC 25923 assessed as growth inhibition after 18 hrs by broth microdilution method. In kind it is functional. The following applies: ATCC 25923, 18 h.
Series [10] can be described thus: Aqueous solubility of the compound by HPLC analysis. The series is classed as physicochemical.
Series [11] is described as follows: Lipophilicity, log P of the compound by HPLC analysis. The series is classed as physicochemical.

Converted amounts (≈) assume the structure as drawn.

Seven molecules from ChEMBL document CHEMBL3124787, “Discovery of novel bis-oxazolidinone compounds as potential potent and selective antitubercular agents” (Bioorg Med Chem Lett, 2014) can be followed below.

Usually IC50 stands for the concentration at which inhibition is half-maximal. In general, MIC refers to the smallest concentration in the dilution series that meets the test's criterion for growth inhibition. By MIC99 is commonly meant the lowest concentration that inhibits either 99% of growth or 99% of the strains tested, depending on the study. Usually solubility stands for how much of the substance goes into solution per volume. As usually defined, the logP is the decadic logarithm of the partition coefficient of the neutral form, usually between octanol and water. For the molecule `CC(=O)NC[C@H]1CN(c2ccc(OC[C@@H]3CN(c4ccccc4)C(=O)O3)c(F)c2)C(=O)O1`, in series [1], the selectivity ratio was greater than 40000. In the series on Vero, this molecule gave an IC50 greater than 5000 µg/mL. In addition, the MIC in series [2] stood at 0.125 µg/mL (≈ 0.282 µM). Moreover, the MIC99 with Pseudomonas aeruginosa is greater than 32 µg/mL; in the series on Escherichia coli it was greater than 32 µg/mL; in [3] it was greater than 64 µg/mL; in the series on Staphylococcus aureus [4] it was 16 µg/mL (≈ 36.1 µM); in the series on Staphylococcus aureus [5] it was 16 µg/mL (≈ 36.1 µM); in the series with Staphylococcus aureus [6] it was 16 µg/mL (≈ 36.1 µM). In addition, the MIC99 worked out at 8 µg/mL (≈ 18 µM) in the series on Staphylococcus aureus [7], 16 µg/mL (≈ 36.1 µM) in the series on Staphylococcus aureus [8] and 16 µg/mL (≈ 36.1 µM) with Staphylococcus aureus [9]. This molecule also returned a solubility in series [10] of 14 µM (≈ 6.21 µg/mL). Moreover, in series [11], the lipophilicity (logP) is 1.78.

On to `CC(=O)NC[C@H]1CN(c2ccc(OC[C@H]3CN(c4ccccc4)C(=O)O3)c(F)c2)C(=O)O1`, for which the selectivity ratio in series [1] is 254. In the series on Vero, 63.6 µg/mL (≈ 143 µM) corresponded to half-maximal inhibition (IC50). Moreover, in [2], the minimum inhibitory concentration (MIC) came to 0.25 µg/mL (≈ 0.564 µM). Moreover, the MIC99 with Pseudomonas aeruginosa is greater than 32 µg/mL; with Escherichia coli, greater than 32 µg/mL; in [3], 32 µg/mL (≈ 72.2 µM); in the series with Staphylococcus aureus [4] it was 8 µg/mL (≈ 18 µM); in the series with Staphylococcus aureus [5], 16 µg/mL (≈ 36.1 µM); in the series on Staphylococcus aureus [6], 4 µg/mL (≈ 9.02 µM). Moreover, the MIC99 stood at 4 µg/mL (≈ 9.02 µM) with Staphylococcus aureus [7], 8 µg/mL (≈ 18 µM) with Staphylococcus aureus [8] and 8 µg/mL (≈ 18 µM) in the series with Staphylococcus aureus [9]. The molecule further came in with a solubility in series [10] of 164 µM (≈ 72.7 µg/mL). This molecule also registered a logP in [11] of 1.86.

`COc1ccc(N2C[C@@H](COc3ccc(N4C[C@H](CNC(C)=O)OC4=O)cc3F)OC2=O)cc1`: the selectivity ratio in series [1] was found to be 152. Also, the IC50 in the series with Vero turned out to be 19.1 µg/mL (≈ 40.3 µM). Also, in [2], the MIC worked out at 0.125 µg/mL (≈ 0.264 µM). The MIC99 in the series with Pseudomonas aeruginosa is greater than 32 µg/mL; with Escherichia coli it was greater than 32 µg/mL; in series [3], greater than 64 µg/mL; in the series on Staphylococcus aureus [4] it was 16 µg/mL (≈ 33.8 µM); with Staphylococcus aureus [5], 16 µg/mL (≈ 33.8 µM); in the series on Staphylococcus aureus [6], 8 µg/mL (≈ 16.9 µM). Besides, the MIC99 in the series with Staphylococcus aureus [7] was 8 µg/mL (≈ 16.9 µM); with Staphylococcus aureus [8], 16 µg/mL (≈ 33.8 µM); with Staphylococcus aureus [9], 16 µg/mL (≈ 33.8 µM). Further, the solubility in series [10] was determined as 132 µM (≈ 62.5 µg/mL). The same molecule came in with a logP in series [11] of 1.91.

Turning to `COc1ccc(N2C[C@H](COc3ccc(N4C[C@H](CNC(C)=O)OC4=O)cc3F)OC2=O)cc1`, in [1], the selectivity ratio is 428. This molecule registered a concentration for half-maximal inhibition (IC50) with Vero of 107 µg/mL (≈ 226 µM). Also, the MIC in [2] was determined as 0.25 µg/mL (≈ 0.528 µM). The MIC99 is greater than 32 µg/mL in the series on Pseudomonas aeruginosa; greater than 32 µg/mL in the series on Escherichia coli; greater than 64 µg/mL in series [3]; 4 µg/mL (≈ 8.45 µM) in the series with Staphylococcus aureus [4]; 8 µg/mL (≈ 16.9 µM) in the series with Staphylococcus aureus [5]; 4 µg/mL (≈ 8.45 µM) with Staphylococcus aureus [6]. The results for the MIC99 with Staphylococcus aureus [7], in the series with Staphylococcus aureus [8] and in the series on Staphylococcus aureus [9] were 4 µg/mL (≈ 8.45 µM), 8 µg/mL (≈ 16.9 µM) and 8 µg/mL (≈ 16.9 µM), respectively. For the same molecule, the concentration in solution in [10] (solubility) came to 211 µM (≈ 99.9 µg/mL). In series [11], this molecule yielded a logP of 1.73.

For the molecule `COc1ccc(NC[C@H](O)COc2ccc(N3C[C@H](CNC(C)=O)OC3=O)cc2F)cc1`, in [2], the minimum inhibitory concentration (MIC) was determined as 8 µg/mL (≈ 17.9 µM). The MIC99 in the series with Pseudomonas aeruginosa is greater than 32 µg/mL; with Escherichia coli it was greater than 32 µg/mL; in [3], 64 µg/mL (≈ 143 µM); in the series with Staphylococcus aureus [4], 8 µg/mL (≈ 17.9 µM); in the series with Staphylococcus aureus [5], 16 µg/mL (≈ 35.8 µM); in the series with Staphylococcus aureus [6], 4 µg/mL (≈ 8.94 µM). Moreover, the MIC99 came out at 4 µg/mL (≈ 8.94 µM) with Staphylococcus aureus [7], 8 µg/mL (≈ 17.9 µM) in the series with Staphylococcus aureus [8] and 8 µg/mL (≈ 17.9 µM) in the series on Staphylococcus aureus [9]. In series [10], this molecule had a solubility of 56 µM (≈ 25.1 µg/mL). For the same molecule, the lipophilicity (logP) in series [11] is 0.95.

With `CC(=O)NC[C@H]1CN(c2ccc(OC[C@@H](O)CNc3ccccc3)c(F)c2)C(=O)O1`, in series [2], the MIC amounted to 8 µg/mL (≈ 19.2 µM). In addition, the MIC99 with Pseudomonas aeruginosa is greater than 32 µg/mL; in the series with Escherichia coli it was greater than 32 µg/mL; in series [3], greater than 64 µg/mL; in the series with Staphylococcus aureus [4], 4 µg/mL (≈ 9.58 µM); in the series on Staphylococcus aureus [5], 8 µg/mL (≈ 19.2 µM); in the series with Staphylococcus aureus [6], 4 µg/mL (≈ 9.58 µM). Further, the results for the MIC99 in the series with Staphylococcus aureus [7], in the series on Staphylococcus aureus [8] and in the series with Staphylococcus aureus [9] were 4 µg/mL (≈ 9.58 µM), 8 µg/mL (≈ 19.2 µM) and 8 µg/mL (≈ 19.2 µM), respectively. In addition, the concentration in solution in series [10] (solubility) was 124 µM (≈ 51.8 µg/mL). The same molecule gave a log partition coefficient (logP) in series [11] of 1.42.

In the case of `CC(=O)NC[C@H]1CN(c2ccc(N3CCOCC3)c(F)c2)C(=O)O1` [LINEZOLID], in series [2], the MIC was found to be 0.25 µg/mL (≈ 0.741 µM). In addition, the MIC99 with Pseudomonas aeruginosa was greater than 32 µg/mL; in the series with Escherichia coli it was greater than 32 µg/mL; in the series with Staphylococcus aureus [4], 2 µg/mL (≈ 5.93 µM); with Staphylococcus aureus [5], 2 µg/mL (≈ 5.93 µM); with Staphylococcus aureus [6], 2 µg/mL (≈ 5.93 µM); in the series with Staphylococcus aureus [7] it was 1 µg/mL (≈ 2.96 µM). Moreover, the MIC99 with Staphylococcus aureus [8] and in the series with Staphylococcus aureus [9] was 2 µg/mL (≈ 5.93 µM) each time.
